# From PMC3447535 (Neuropharmacology, 2012)
# Assays:
# Grn (granulin) = details: ref Cenik et al., 2011; cited from earlier work
# [1] = test system: Egr1-EGFP reporter gene in primary cultured cortical neurons; assay: Egr1 reporter gene assay; type: cell-based, mouse; details: 24 hour treatments
# recombinant HDAC4 = recombinant HDAC4 (Homo sapiens, UniProt P56524); assay: In vitro HDAC enzymatic assay, HDAC4; details: read-out: IC50 for inhibition of enzymatic activity of HDAC4; Class IIa
# recombinant HDAC2 = recombinant HDAC2 (Homo sapiens, UniProt Q92769); assay: In vitro HDAC enzymatic assay, HDAC2
# [2] = test system: mouse primary forebrain cultures; assay: Synapsin I punctae imaging along Map2-positive dendrites; type: cell-based; details: 1 μM, 24 hr
# recombinant HDAC3 = recombinant HDAC3 (Homo sapiens, UniProt O15379); assay: In vitro HDAC enzymatic assay, HDAC3
# [3] = test system: Homer1 expression in cortical neurons; assay: NanoString nCounter gene expression assay; type: cell-based, mouse; details: crebinostat 1 μM 24 hours, BDNF 20 ng/ml last 6 hours
# [4] = test system: mouse primary forebrain cultures; assay: Toxicity in primary neuronal cultures on coverslips; type: cell-based; details: 1 μM, 24 hrs
# recombinant HDAC6 = target: T1, recombinant HDAC6 (Homo sapiens, UniProt Q9UBN7); assay: In vitro HDAC enzymatic assay, HDAC6
# T1 sequence (Q9UBN7 1-1215): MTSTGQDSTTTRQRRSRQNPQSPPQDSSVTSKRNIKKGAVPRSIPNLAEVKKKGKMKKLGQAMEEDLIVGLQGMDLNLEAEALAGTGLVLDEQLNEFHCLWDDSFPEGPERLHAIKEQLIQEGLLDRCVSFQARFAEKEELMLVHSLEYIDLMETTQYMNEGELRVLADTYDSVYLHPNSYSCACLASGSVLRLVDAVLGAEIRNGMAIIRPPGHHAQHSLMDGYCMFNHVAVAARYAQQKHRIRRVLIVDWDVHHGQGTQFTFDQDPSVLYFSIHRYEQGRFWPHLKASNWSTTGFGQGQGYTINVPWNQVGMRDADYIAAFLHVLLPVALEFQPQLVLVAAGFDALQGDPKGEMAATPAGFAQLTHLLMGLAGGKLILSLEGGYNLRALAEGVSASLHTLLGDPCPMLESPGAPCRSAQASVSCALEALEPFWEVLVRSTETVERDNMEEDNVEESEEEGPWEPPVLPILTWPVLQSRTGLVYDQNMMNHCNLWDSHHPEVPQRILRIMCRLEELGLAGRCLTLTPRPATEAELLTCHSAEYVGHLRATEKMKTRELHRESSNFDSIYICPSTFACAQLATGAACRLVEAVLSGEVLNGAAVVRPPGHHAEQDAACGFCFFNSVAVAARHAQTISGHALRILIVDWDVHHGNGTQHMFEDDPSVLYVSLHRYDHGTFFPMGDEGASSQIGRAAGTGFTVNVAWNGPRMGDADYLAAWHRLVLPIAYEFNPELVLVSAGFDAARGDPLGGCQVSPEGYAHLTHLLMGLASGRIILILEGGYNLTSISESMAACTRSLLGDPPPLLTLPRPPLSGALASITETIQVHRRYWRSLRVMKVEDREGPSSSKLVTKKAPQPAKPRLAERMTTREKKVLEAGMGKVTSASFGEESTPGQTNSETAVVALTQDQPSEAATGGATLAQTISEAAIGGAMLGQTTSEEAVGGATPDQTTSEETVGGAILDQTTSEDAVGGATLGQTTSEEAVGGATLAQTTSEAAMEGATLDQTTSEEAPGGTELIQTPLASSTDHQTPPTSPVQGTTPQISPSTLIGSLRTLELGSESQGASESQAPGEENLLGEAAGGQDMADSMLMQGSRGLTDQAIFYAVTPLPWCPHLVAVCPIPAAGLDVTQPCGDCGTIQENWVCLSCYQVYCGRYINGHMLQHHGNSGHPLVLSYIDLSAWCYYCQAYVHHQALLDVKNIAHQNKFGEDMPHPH
# recombinant HDAC1 [5] = target: T2, recombinant HDAC1 (Homo sapiens, UniProt Q13547); assay: biochemical
# C57BL/6J mice = assay: Open field locomotion prior to footshock; type: in vivo, mouse; details: 25 mg/kg IP daily, 10 days
# recombinant HDAC1 [6] = target: T2, recombinant HDAC1; details: more potent than SAHA
# recombinant HDAC9 = recombinant HDAC9 (Homo sapiens, UniProt Q9UKV0); assay: In vitro HDAC enzymatic assay, HDAC9; details: read-out: IC50 for inhibition of enzymatic activity of HDAC9; Class IIa
# [7] = test system: mouse forebrain primary cultured neurons; assay: Quantitative RT-PCR assays of gene expression; type: cell-based; details: 1 μM
# recombinant HDAC5 = recombinant HDAC5 (Homo sapiens, UniProt Q9UQL6); assay: In vitro HDAC enzymatic assay, HDAC5; details: read-out: IC50 for inhibition of enzymatic activity of HDAC5; Class IIa
# recombinant HDAC7 = target: T3, recombinant HDAC7 (Homo sapiens, UniProt Q8WUI4); assay: In vitro HDAC enzymatic assay, HDAC7; details: read-out: IC50 for inhibition of enzymatic activity of HDAC7; Class IIa
# T3 sequence (Q8WUI4 1-952): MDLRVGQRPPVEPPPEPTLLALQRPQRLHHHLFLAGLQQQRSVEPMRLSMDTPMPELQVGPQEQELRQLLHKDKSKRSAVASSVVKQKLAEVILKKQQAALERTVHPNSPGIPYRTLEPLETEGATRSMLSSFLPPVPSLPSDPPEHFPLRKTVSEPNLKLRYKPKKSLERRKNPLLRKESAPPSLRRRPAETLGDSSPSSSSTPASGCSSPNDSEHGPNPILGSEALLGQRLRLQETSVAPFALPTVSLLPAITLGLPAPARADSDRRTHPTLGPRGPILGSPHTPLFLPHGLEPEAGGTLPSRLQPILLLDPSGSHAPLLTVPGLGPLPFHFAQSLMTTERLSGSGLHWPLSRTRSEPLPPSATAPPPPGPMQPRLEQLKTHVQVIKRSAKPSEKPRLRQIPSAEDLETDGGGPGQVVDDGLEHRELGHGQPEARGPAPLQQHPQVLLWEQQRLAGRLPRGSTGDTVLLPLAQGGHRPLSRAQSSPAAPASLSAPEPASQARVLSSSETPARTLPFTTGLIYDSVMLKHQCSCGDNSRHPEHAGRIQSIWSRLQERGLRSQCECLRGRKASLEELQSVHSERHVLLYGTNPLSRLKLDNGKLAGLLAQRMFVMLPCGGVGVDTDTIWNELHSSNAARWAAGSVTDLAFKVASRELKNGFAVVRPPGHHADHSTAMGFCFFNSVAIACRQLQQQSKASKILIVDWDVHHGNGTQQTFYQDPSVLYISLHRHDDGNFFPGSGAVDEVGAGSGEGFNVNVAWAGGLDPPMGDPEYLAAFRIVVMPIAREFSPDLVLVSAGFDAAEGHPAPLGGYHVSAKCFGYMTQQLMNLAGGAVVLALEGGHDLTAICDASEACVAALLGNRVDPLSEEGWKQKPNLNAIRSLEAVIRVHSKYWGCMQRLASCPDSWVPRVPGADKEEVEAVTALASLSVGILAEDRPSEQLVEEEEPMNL
# [8] = test system: 6X-CRE-β-galactosidase CREB reporter gene in PC12 cells; assay: CREB reporter gene assay; type: cell-based; details: for effect on forskolin induction of the CREB reporter gene: in the presence of forskolin (10 μM), 4 hr, library compounds 20 μM
# [9] = test system: mouse forebrain primary cultured neurons; assay: Transcriptome profiling; type: cell-based; details: 1 μM, 24 hrs
# [10] = Crebinostat concentration in brain and plasma; type: in vivo, mouse; details: single IP dose 25 mg/kg
# [11] = test system: hippocampal acetylation of H4K12 and H3K9; assay: Western blot of hippocampal histone acetylation after IP injection; type: in vivo, mouse; details: one hour after IP injection
# [12] = test system: acetylated histone H3, H4, H2A, H2B in cultured primary mouse neurons; assay: Western blotting of neuronal histone acetylation; type: cell-based; details: 1 μM, 24 hrs
# [13] = test system: AcH4K12 in mouse primary forebrain cultures; assay: High resolution neuronal histone acetylation imaging; type: cell-based; details: 1 μM, 24 hrs
# [14] = test system: AcH4K12 in mouse primary cultured forebrain neurons; assay: Neuronal histone acetylation immunofluorescence assay, AcH4K12; details: AcH4K12 and AcH3K9; more potent than SAHA
# T2 sequence (Q13547 whole entry): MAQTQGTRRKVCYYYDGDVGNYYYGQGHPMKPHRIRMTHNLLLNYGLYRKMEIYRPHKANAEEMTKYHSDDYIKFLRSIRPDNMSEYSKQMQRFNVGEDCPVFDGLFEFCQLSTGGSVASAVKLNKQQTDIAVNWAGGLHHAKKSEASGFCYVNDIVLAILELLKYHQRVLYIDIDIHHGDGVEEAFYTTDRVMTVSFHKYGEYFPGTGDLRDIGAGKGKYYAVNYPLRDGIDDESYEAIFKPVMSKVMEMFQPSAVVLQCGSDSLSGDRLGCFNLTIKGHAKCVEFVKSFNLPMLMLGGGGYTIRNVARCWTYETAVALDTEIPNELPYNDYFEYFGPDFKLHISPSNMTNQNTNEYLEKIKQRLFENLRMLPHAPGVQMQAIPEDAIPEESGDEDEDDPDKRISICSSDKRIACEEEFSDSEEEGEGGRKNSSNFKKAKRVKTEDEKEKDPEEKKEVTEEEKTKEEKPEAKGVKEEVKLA
# Sequence of recombinant HDAC9 (Q9UKV0 whole entry): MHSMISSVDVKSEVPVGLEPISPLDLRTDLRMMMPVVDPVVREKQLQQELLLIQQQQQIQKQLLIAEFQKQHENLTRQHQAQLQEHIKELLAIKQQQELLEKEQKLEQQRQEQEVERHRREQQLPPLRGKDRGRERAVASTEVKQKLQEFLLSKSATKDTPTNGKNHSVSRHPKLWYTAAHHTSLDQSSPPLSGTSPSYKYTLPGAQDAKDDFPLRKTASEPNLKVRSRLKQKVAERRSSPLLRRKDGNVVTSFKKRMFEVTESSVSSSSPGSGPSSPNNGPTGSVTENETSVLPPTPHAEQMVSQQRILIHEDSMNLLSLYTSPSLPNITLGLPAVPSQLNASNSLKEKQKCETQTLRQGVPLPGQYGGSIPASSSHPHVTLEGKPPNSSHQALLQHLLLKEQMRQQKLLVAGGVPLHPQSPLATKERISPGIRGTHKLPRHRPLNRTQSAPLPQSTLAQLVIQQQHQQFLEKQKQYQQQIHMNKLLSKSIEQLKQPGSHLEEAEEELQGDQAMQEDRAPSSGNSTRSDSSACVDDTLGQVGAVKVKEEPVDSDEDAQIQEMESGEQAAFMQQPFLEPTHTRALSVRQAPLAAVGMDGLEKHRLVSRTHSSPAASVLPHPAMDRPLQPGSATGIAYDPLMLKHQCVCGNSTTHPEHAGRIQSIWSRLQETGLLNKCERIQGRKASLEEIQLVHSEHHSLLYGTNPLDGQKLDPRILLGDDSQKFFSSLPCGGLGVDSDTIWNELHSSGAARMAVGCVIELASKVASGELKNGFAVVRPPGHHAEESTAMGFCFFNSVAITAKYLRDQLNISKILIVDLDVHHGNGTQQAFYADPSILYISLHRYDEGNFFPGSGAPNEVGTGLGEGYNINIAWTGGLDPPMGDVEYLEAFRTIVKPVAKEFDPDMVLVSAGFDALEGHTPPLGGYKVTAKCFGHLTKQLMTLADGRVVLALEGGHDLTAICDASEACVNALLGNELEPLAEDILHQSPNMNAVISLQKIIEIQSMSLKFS
# Sequence of recombinant HDAC2 (Q92769 whole entry): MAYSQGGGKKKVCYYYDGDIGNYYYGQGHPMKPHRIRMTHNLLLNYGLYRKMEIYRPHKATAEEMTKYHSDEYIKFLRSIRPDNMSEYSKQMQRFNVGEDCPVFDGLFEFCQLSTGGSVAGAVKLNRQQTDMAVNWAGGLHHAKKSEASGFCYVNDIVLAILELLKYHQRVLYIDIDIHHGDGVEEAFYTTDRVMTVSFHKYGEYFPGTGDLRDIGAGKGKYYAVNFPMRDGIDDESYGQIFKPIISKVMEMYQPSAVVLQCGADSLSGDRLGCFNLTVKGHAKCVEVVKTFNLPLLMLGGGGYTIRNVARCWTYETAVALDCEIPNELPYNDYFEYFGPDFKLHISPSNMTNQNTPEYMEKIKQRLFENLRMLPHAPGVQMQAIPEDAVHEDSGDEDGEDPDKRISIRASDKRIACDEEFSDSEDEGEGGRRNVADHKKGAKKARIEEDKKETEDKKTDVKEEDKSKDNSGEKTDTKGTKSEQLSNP
# Sequence of recombinant HDAC5 (Q9UQL6 whole entry): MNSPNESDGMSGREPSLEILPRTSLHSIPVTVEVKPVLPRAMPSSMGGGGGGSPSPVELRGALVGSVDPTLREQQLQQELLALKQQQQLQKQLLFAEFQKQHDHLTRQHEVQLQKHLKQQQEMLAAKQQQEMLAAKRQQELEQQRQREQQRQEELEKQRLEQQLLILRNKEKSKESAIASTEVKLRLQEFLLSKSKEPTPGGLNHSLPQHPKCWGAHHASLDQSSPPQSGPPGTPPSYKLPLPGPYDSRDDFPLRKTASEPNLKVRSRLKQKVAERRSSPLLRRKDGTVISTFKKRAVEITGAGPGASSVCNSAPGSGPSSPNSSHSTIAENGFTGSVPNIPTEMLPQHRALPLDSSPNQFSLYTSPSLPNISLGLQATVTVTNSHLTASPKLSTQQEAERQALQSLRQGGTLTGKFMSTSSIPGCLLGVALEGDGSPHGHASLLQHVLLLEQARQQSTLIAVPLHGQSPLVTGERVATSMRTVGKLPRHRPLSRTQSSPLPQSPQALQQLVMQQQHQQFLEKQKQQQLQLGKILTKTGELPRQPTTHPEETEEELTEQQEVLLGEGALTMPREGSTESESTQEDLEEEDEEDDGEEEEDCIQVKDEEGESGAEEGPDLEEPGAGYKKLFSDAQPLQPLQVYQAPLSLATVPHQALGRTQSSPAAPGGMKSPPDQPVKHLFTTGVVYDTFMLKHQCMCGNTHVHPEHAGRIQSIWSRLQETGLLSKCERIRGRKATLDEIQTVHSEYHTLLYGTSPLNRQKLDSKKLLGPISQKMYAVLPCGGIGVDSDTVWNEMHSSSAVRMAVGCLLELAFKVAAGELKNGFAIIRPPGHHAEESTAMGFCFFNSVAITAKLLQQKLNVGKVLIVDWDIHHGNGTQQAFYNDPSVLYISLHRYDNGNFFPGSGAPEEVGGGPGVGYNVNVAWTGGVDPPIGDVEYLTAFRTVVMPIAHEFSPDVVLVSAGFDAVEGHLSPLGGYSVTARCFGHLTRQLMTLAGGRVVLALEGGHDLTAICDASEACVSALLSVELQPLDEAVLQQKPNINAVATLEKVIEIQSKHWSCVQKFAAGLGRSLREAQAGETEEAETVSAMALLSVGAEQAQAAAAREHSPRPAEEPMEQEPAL
# Sequence of recombinant HDAC4 (P56524 whole entry): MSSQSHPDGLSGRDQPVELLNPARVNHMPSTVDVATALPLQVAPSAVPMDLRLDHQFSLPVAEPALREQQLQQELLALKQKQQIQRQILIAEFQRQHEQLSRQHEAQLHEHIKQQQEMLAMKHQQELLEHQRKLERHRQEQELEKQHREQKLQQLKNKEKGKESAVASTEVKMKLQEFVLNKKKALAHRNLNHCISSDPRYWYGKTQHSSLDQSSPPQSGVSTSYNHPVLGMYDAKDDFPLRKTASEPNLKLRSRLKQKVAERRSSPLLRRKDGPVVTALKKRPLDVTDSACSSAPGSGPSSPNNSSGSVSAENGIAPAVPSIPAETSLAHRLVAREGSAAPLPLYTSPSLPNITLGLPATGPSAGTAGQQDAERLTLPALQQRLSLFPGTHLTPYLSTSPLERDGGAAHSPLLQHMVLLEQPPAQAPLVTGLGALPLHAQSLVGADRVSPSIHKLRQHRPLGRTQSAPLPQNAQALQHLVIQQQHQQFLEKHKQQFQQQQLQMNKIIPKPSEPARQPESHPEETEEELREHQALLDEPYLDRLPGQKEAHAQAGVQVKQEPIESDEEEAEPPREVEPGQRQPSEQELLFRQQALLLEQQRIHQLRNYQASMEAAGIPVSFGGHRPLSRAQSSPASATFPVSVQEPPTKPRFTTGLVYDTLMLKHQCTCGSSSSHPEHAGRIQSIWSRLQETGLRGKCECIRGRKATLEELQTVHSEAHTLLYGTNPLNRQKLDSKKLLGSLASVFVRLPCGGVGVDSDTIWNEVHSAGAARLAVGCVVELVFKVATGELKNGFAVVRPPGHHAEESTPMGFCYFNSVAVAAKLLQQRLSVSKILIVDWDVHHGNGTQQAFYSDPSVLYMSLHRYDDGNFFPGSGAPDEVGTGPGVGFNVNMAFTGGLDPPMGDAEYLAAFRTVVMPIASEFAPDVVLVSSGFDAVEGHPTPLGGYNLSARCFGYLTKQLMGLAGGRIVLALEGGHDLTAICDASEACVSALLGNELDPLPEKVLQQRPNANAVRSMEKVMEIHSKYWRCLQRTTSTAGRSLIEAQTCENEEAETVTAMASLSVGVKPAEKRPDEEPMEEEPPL
# Sequence of recombinant HDAC3 (O15379 whole entry): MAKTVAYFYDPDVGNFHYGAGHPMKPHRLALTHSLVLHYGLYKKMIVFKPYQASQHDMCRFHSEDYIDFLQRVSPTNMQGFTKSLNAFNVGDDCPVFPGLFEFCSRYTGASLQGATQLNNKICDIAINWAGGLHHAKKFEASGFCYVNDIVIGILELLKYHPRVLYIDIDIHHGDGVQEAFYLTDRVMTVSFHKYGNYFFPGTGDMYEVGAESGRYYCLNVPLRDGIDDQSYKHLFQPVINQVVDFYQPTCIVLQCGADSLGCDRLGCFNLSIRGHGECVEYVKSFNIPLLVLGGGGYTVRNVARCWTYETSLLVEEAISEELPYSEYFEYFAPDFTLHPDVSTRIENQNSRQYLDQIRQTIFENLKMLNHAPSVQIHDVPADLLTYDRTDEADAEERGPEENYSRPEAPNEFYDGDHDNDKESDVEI
# Sequence of recombinant HDAC3 (Q9Y618 395-489 partner limits assumed): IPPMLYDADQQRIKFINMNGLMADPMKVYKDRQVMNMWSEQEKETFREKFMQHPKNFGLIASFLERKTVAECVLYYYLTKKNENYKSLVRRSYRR
smiles,measurement,setting,value
"O=C(CCCCCCC(=O)Nc1ccccc1)NO [SAHA, suberoylanilide hydroxamic acid, reference compound]",expression of Grn (granulin) in cell lines,Grn (granulin),upregulate
same,Egr1-EGFP reporter gene activity,[1],induced
"O=C(CCCCCC(=O)NN=Cc1ccc(-c2ccccc2)cc1)NO [crebinostat, 7-(2-([1,1′-biphenyl]-4-ylmethylene)hydrazinyl)-N-hydroxy-7-oxoheptanamide]",IC50,recombinant HDAC4,> 2000 nM
same,IC50,recombinant HDAC2,1 ± 0.08 nM
same,increase in dendritic synapsin I punctae density,[2],~2 fold
same,synapsin I punctae size or staining intensity,[2],did not alter
same,total dendrite length per image,[2],did not alter
same,IC50,recombinant HDAC3,2 ± 0.3 nM
same,regulation of Homer1 expression together with BDNF stimulation,[3],synergistic
same,toxicity in neuronal cultures,[4],no detectable toxicity
same,IC50,recombinant HDAC6,9.3 ± 0.6 nM
same,IC50,recombinant HDAC1 [5],0.7 ± 0.04 nM
same,exploratory activity immediately prior to foot shock versus vehicle,C57BL/6J mice,no significant differences
same,potency relative to SAHA for inhibition of class I HDACs 1-3,recombinant HDAC1 [6],approximately 10 fold
same,IC50,recombinant HDAC9,> 2000 nM
same,Grn mRNA expression,[7]; 24 hours,upregulate
same,Hspa1b (Hsp70) mRNA expression,[7]; 24 hours,upregulated
same,Mapt mRNA expression,[7]; 24 hours,downregulated
same,Bdnf mRNA expression,"[7]; 24 hours, Bdnf transcript IV",upregulated
same,Fold upregulation (RT-PCR) Aldh2,"[7]; 24 hrs, normalized to Gapdh",2.3 fold
same,Fold upregulation (RT-PCR) Egr1,"[7]; 24 hrs, normalized to Gapdh",3.9 fold
same,Fold upregulation (RT-PCR) Pik3c3,"[7]; 24 hrs, normalized to Gapdh",2.2 fold
same,Fold upregulation (RT-PCR) Sdcbp,"[7]; 24 hrs, normalized to Gapdh",2.3 fold
same,IC50,recombinant HDAC5,> 2000 nM
same,Egr1-EGFP reporter gene activity,[1],induced
same,IC50,recombinant HDAC7,> 2000 nM
same,effect on forskolin induction of the CREB reporter gene,[8],strong activation of the reporter only in the presence of forskolin
same,Fold upregulation (Illumina array) Aldh2,[9],2.0 fold
same,Fold upregulation (Illumina array) Sdcbp,[9],2.2 fold
same,half-life,"[10]; C57BL/6, mouse, brain, ip, 25 mg/kg, half-life (T1/2), mouse brain",43.2 min
same,time of Cmax in brain post-injection,[10]; mouse,30 min
same,total hippocampal acetylation of H4K12 and H3K9,[11],not statistically significant
same,"acetylation of histone H3, H4, H2A and H2B (western blot)",[12],strong increases
same,histone acetylation (AcH4K12) in cultures on glass coverslips,[13],robust increase
same,potency relative to SAHA at inducing histone acetylation in neurons,[14],~ 6 fold
C=C[C@@]1(C)CC(=O)[C@]2(O)[C@@]3(C)[C@@H](O)CCC(C)(C)[C@@H]3[C@H](O)[C@H](OC(C)=O)[C@@]2(C)O1 [forskolin],induction of the CREB reporter gene,"[8]; 10 μM, 4 hours, PC12 cells",~ 4 fold
CC(/C=C/C(=O)NO)=C\[C@@H](C)C(=O)c1ccc(N(C)C)cc1 [trichostatin A],effect on forskolin induction of the CREB reporter gene,[8],further enhanced
